The text below walks through data of US10266526B2, “Substituted 1,2,3-triazoles as SMYD inhibitors for treating cancer” (EPIZYME, INC., priority 2014, dated 2019).

Test [1] addresses T1, SMYD3 (Homo sapiens (Human), UniProt Q9H7B4). Briefly: SMYD3 biochemical assay (SMYD3 enzyme assay on MEKK2 protein substrate, 3H-SAM scintillation proximity assay). Conditions: read-out: SMYD3 Biochem IC50. The method, boiled down: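 Native full-length human SMYD3, expressed in E. coli, was preincubated with compound for 30 min at room temperature in 25 mM Tris-Cl pH 8.0, 1 mM TCEP, 0.005% BSG and 0.005% Tween 20. ³H-SAM plus GST-MEKK2 then started the reaction. It was stopped with unlabeled SAM (100 uM final), and methylated MEKK2 was read by SPA.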
(Scintillation proximity formats need no separation of bound from free tracer.)

Test [2] deals with T1, SMYD3. Briefly: SMYD3 cell assay (Trimethyl-MEKK2 In-Cell Western in 293T/17 cells transfected with MEKK2-flag and SMYD3). The test is classed as cell-based. The note with it: Table 3A; average of n = 1 to n = 50; read-out: SMYD3 cell IC50. From the text: Trimethyl-MEKK2-in-Cell Western Assay
MEM/Glutamax medium, Optimem Reduced Serum medium, penicillin-streptomycin, 0.05% trypsin and 1×D-PBS were purchased from Life Technologies, Grand Island, N.Y., USA. PBS-10× was purchased from Ambion, Life Technologies, Grand Island, N.Y., USA. PBS with Tween 20 (PBST (10×)) was purchased from KPL, Gaithersburg, Md., USA. Tet System FBS-approved FBS US Source was purchased from Clontech, Mountain View, Calif., USA. Odyssey blocking buffer, 800CW goat anti-rabbit IgG (H+L) antibody, 680CW Goat anti-mouse IgG (H+L) and Licor Odyssey infrared scanner were purchased from Licor Biosciences, Lincoln, Nebr., USA. Tri-methyl-Lysine [A260]-MEKK2 antibody, MEKK2 and SMYD3 plasmids were made at Epizyme. Anti-flag monoclonal mouse antibody was purchased from Sigma, St. Louis, Mo., USA. Methanol was purchased from VWR, Franklin, Mass., USA. 10% Tween 20 was purchased from KPL, Inc., Gaithersburg, Md., USA. Fugene was purchased from Promega, Madison, Wis., USA. The Biotek ELx405 was purchased from BioTek, Winooski, Vt., USA. The multidrop combi was purchased from Thermo Scientific, Waltham, Mass., USA.
Cell Treatment, in Cell Western (ICW) for Detection of Trimethyl-Lysine-MEKK2 and MEKK2.
Plasmids were prepared for delivery to cells by first mixing 1350 μL Opti-MEM with Fugene (81 μL) in a sterile Eppendorf and incubated for five minutes at room temperature (RT). […] Entire volume of Opti-MEM/Fugene mixture was then added to a microfuge tube containing DNA plasmid, mixed and then incubated ×15 minutes at RT. […] Medium was then removed, and cells were washed once with PBS in the flask. Trypsin 0.05% (3 mL) was added and cells incubated for three minutes. Room temperature MEM+10% Tet system FBS was added and cells were mixed gently, and counted using the Vi-cell. Cells were seeded at 100,000 cells/mL in 50 μL MEM/10% Tet FBS/Pen/Strep to a 384 well black/clear poly-D-lysine coated plate containing test agent diluted in DMSO. The final top concentration of test compound was 40 μM. […] Plates were incubated ×30 minutes at RT in low-airflow area, followed by incubation at 37° C. under 5% CO2 for 24 hours. Medium was aspirated from all wells of assay plates prior to fixation and permeabilization with ice cold (−20° C.) methanol (90 μL/well) for ten minutes. Plates were rinsed with PBS three times on BioTek ELx405. PBS was removed with a final aspiration, and Odyssey blocking buffer (50 μL/well) was added to each well and incubated for one hour at RT. Primary antibody solution was prepared (anti-trimethyl-MEKK2 at 1:600 dilution plus mouse anti-flag antibody at 1:10,000 dilution in diluent (Odyssey Blocking buffer+0.1% Tween 20)) and 20 μL per well was dispensed using the Multidrop Combi. Assay plates were then sealed with foil, and incubated overnight at 4° C. Plates were washed five times with PBS-Tween (1×) on Biotek ELx405 and blotted on paper towel to remove excess reagent.
First, the ratio for each well was determined by:
Each plate included fourteen control wells of DMSO only treatment (Minimum Inhibition) as well as fourteen control wells for maximum inhibition (Background). The average of the ratio values for each control type was calculated and used to determine the percent inhibition for each test well in the plate. Reference compound was serially diluted two-fold in DMSO for a total of nine test concentrations, beginning at 40 μM. Percent inhibition was calculated (below).
Non-linear regression curves were generated to calculate the IC50 and dose-response relationship using triplicate wells per concentration of compound.

[3] abbreviates: Table 3A, average of n = 1 to n = 50.

T1 sequence (Q9H7B4 whole entry): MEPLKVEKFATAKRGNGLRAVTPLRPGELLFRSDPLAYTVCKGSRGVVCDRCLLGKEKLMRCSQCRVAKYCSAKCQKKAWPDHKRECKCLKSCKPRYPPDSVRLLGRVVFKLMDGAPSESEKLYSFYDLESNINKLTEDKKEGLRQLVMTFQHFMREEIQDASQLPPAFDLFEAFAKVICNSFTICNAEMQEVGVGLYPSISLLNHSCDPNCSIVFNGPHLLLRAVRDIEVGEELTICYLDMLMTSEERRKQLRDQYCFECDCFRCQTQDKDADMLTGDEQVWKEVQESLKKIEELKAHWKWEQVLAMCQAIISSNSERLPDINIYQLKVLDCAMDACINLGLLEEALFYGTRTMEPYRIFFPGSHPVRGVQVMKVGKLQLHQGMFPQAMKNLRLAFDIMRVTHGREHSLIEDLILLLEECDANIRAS

The IC50 is the point on the concentration scale where inhibition reaches its midpoint. As for `C[C@H]1CC(NC(=O)c2ccc3c(c2)CC(=O)N3)CCN1S(=O)(=O)c1ccc(C(C)(C)N)cc1` (stereo partly drawn) [compound 584, N-((2S)-1-((4-(2-aminopropan-2-yl)phenyl)sulfonyl)-2-methylpiperidin-4-yl)-2-oxoindoline-5-carboxamide], the IC50 in test [1] (setting [3]) amounted to 1.47 nM; in test [2], 653 nM.
With `O=C1Cc2cc(C(=O)N[C@H]3C[C@H]4CC[C@@H](C3)N4S(=O)(=O)CC3CCN(CCCO)CC3)c(Cl)cc2N1` [compound 585, 6-chloro-N-((1R,3r,5S)-8-(((1-(3-hydroxypropyl)piperidin-4-yl)methyl)sulfonyl)-8-azabicyclo[3.2.1]octan-3-yl)-2-oxoindoline-5-carboxamide], the results for the IC50 in test [1] (setting [3]) and in test [2] were 1.73 nM and 764 nM, respectively.
On the same counts, the results for `CNC1CCN(S(=O)(=O)N2[C@@H]3CC[C@H]2C[C@@H](NC(=O)c2cc4c(cc2Cl)NC(=O)C4)C3)CC1` [compound 586, 6-chloro-N-((1R,3r,5S)-8-((4-(methylamino)piperidin-1-yl)sulfonyl)-8-azabicyclo[3.2.1]octan-3-yl)-2-oxoindoline-5-carboxamide] are 1.89 nM and 425 nM.
Consider `C[C@H]1C[C@@H](NC(=O)c2cc3c(cc2Cl)NC(=O)C3)CCN1S(=O)(=O)c1ccc(C(C)(C)N)cc1` [compound 588, N-((2S,4S)-1-((4-(2-aminopropan-2-yl)phenyl)sulfonyl)-2-methylpiperidin-4-yl)-6-chloro-2-oxoindoline-5-carboxamide], for which the IC50 in test [1] (setting [3]) was 1.98 nM; in test [2] it was 356 nM.
As for `CNC1CCN(S(=O)(=O)N2[C@@H]3CC[C@H]2C[C@@H](NC(=O)c2ccc4c(c2)CC(=O)N4)C3)CC1` [compound 589, N-((1R,3r,5S)-8-((4-(methylamino)piperidin-1-yl)sulfonyl)-8-azabicyclo[3.2.1]octan-3-yl)-2-oxoindoline-5-carboxamide], the IC50 amounted to 2.13 nM in test [1] (setting [3]) and 987 nM in test [2].
Take `O=C1Cc2cc(C(=O)N[C@H]3C[C@H]4CC[C@@H](C3)N4S(=O)(=O)CC3CCCNC3)ccc2N1` (stereo partly drawn) [compound 590, 2-oxo-N-((1R,3r,5S)-8-((piperidin-3-ylmethyl)sulfonyl)-8-azabicyclo[3.2.1]octan-3-yl)indoline-5-carboxamide]: the IC50 in test [1] is 2.14 nM; in test [2], 768 nM.
With `N[C@H]1CC[C@@H](S(=O)(=O)N2[C@@H]3CC[C@H]2C[C@@H](NC(=O)c2ccc4c(c2)CC(=O)N4)C3)CC1` [compound 591, N-((1R,3R,5S)-8-(((1s,4S)-4-aminocyclohexyl)sulfonyl)-8-azabicyclo[3.2.1]octan-3-yl)-2-oxoindoline-5-carboxamide], the IC50 is 2.33 nM in test [1] and 2310 nM in test [2].
In the case of `CN(C)C1CCN(S(=O)(=O)N2[C@@H]3CC[C@H]2C[C@@H](NC(=O)c2ccc4c(c2)CC(=O)N4)C3)CC1` [compound 593, N-((1R,3r,5S)-8-((4-(dimethylamino)piperidin-1-yl)sulfonyl)-8-azabicyclo[3.2.1]octan-3-yl)-2-oxoindoline-5-carboxamide], the IC50 in test [1] (setting [3]) is 2.89 nM; in test [2], 500 nM.
Turning to `CN(C)C1CCN(S(=O)(=O)N2[C@@H]3CC[C@H]2C[C@@H](NC(=O)c2cc4c(cc2Cl)NC(=O)C4)C3)CC1` [compound 594, 6-chloro-N-((1R,3r,5S)-8-((4-(dimethylamino)piperidin-1-yl)sulfonyl)-8-azabicyclo[3.2.1]octan-3-yl)-2-oxoindoline-5-carboxamide], the IC50 is 3.46 nM in test [1] and 301 nM in test [2].
Consider `O=C1Cc2cc(C(=O)N[C@H]3C[C@H]4CC[C@@H](C3)N4S(=O)(=O)CC3CCNCC3)c(Cl)cc2N1` [compound 596, 6-chloro-2-oxo-N-((1R,3r,5S)-8-((piperidin-4-ylmethyl)sulfonyl)-8-azabicyclo[3.2.1]octan-3-yl)indoline-5-carboxamide], for which the IC50 in test [1] (setting [3]) was found to be 3.6 nM; in test [2], 2660 nM.
